# Test results taken from patent US5559153A, “Urea-substituted benzoylguanidines, process for their preparation, their use as pharmaceutical or diagnostic, and pharmaceutical containing them” (priority 1993, dated 1996).
# Counter-ions that a name gives are not always drawn.
# How the values were obtained:
# [1] = target: T1, Na^+ /H^+ exchanger of rabbit erythrocytes (Oryctolagus cuniculus, UniProt P23791); assay: Inhibition of the Na^+ /H^+ exchanger of rabbit erythrocytes (Na^+ influx by flame photometry); format: cell-based, rabbit (New Zealand White); settings: pH 7.4, 37° C., Na^+ influx in hyperosmolar salt/sucrose medium
# T1 construct: Na^+ influx into the erythrocytes via Na^+ /H^+ exchange; endogenous in cells; host or cells: intact erythrocytes from blood of cholesterol-fed New Zealand White rabbits (Ivanovas)
# Text: Inhibition of the Na^+ /H^+ exchanger of rabbit erythrocytes:
# New Zealand White rabbits (Ivanovas) received a standard diet containing 2% cholesterol for six weeks in order to activate the Na^+ /H^+ exchange and thus to be able to determine, by flame photometry, the Na^+ influx into the erythrocytes via Na^+ /H^+ exchange. The blood was removed from the aural arteries and rendered incoagulable using 25 IE/ml of potassium heparin. A part of each sample was used for the duplicate determination of the hematocrit by means of centrifugation. Aliquots of in each case 100 μl were used for measuring the initial Na^+ content of the erythrocytes.
# In order to determine the amiloride-sensitive sodium influx, 100 μl of each blood sample were in each case incubated, at pH 7.4 and 37° C., in 5 ml of a hyperosmolar salt/sucrose medium (mmol/l: 140 NaCl, 3 KCl, 150 sucrose, 0.1 ouabain, 20 tris(hydroxymethyl)aminomethane). The erythrocytes were then washed three times with ice-cold MgCl2 /ouabain solution (mmol/l: 112 MgCl2, 0.1 ouabain) and hemolyzed in 2.0 ml of distilled water. The intracellular sodium content was determined by flame photometry.
# The net influx of Na^+ was calculated from the difference between the initial sodium values and the sodium content of the erythrocytes following incubation. The amiloride-inhibitable sodium influx resulted from the difference in the sodium content of the erythrocytes following incubation with and without amiloride 3×10^-4 mol/l. This method was also employed in the case of the compounds according to the invention.
# [2] = system: artificially induced ventricular fibrillation, rat hearts; settings: isolated rat hearts; cited from earlier work
# cardiac arrhythmias = settings: in vivo; cited from earlier work
# T1 sequence (P23791 whole entry): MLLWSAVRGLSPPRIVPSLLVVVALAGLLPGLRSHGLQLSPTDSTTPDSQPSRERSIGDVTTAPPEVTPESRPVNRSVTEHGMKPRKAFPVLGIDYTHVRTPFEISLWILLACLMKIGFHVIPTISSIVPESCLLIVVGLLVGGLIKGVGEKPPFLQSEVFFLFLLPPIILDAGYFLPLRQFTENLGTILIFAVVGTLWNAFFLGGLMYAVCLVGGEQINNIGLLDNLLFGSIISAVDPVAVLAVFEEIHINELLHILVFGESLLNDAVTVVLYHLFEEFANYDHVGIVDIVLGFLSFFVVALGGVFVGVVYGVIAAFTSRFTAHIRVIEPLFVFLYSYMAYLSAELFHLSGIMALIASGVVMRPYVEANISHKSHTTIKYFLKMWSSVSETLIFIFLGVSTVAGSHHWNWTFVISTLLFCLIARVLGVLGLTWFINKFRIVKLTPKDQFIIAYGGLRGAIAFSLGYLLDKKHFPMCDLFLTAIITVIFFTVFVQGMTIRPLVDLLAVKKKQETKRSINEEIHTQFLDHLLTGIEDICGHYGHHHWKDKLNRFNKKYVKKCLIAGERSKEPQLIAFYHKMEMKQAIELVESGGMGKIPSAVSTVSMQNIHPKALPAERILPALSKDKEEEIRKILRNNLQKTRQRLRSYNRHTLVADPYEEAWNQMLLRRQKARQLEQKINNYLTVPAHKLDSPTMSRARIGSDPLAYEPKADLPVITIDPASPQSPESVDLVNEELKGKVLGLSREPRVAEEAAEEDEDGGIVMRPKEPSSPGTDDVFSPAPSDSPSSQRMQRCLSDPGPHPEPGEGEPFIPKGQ
IC50 [1],Compound,further results
1 to 2 µM,"N=C(N)NC(=O)c1cc(Cl)ccc1NC(=O)N1CCCCC1 [Example 1, 5-Chloro-2-(piperidinocarbonylamino)benzoylguanidine]",–
3 µM,"CN(C)C(=O)Nc1ccc(Cl)cc1C(=O)NC(=N)N [Example 3, 5-Chloro-2-(dimethylaminocarbonylamino)benzoylguanidine hydrochloride]",–
3 to 8 µM,"CC(C)(C)NC(=O)Nc1ccc(Cl)cc1C(=O)NC(=N)N [Example 7, 5-Chloro-2-(tert-butylaminocarbonylamino)benzoylguanidine hydrochloride]",–
3 to 5 µM,"CCNC(=S)Nc1cc(C(=O)NC(=N)N)ccc1Cl [Example 17, 4-Chloro-3-(ethylaminothiocarbonylamino)benzoylguanidine hydrochloride]",–
2 to 5 µM,"CCCNC(=O)Nc1c(Cl)cc(C(=O)NC(=N)N)cc1Cl [Example 20, 3,5-Dichloro-4-(n-propylaminocarbonylamino)benzoylguanidine hydrochloride]",–
1 µM,"N=C(N)NC(=O)c1cc(Cl)c(NC(=O)Nc2ccccc2)c(Cl)c1 [Example 21, 3,5-Dichloro-4-(phenylaminocarbonylamino)benzoylguanidine hydrochloride]",–
–,N=C(N)NC(=O)c1nc(Cl)c(N)nc1N [amiloride],suppression of artificially induced ventricular fibrillation [2]: completely suppress artificially induced ventricular fibrillation; antiarrhythmic effect (cardiac arrhythmias): only weakly expressed; side effects (hypotensive and saluretic) (cardiac arrhythmias): hypotensive and saluretic effects
–,CCN(c1nc(N)c(C(=O)NC(=N)N)nc1Cl)C(C)C [ethylisopropylamiloride],suppression of artificially induced ventricular fibrillation [2]: even more potent than amiloride
